The values that follow come from patent US7541466B2, “Tetrahydroisoquinoline derivatives for treating protein trafficking diseases” (Genzyme Corporation, priority 2003, dated 2009).

SMILES strings stand for the structures.

This assay concerns the target T1, ΔF508 CFTR (Homo sapiens, UniProt P13569, DEL508-508).
T1 construct: expressed in transfected cells
Briefly: MQAE chloride transport assay in C127 cells expressing ΔF508 CFTR. Type of assay: cell-based, murine. To be noted: for Emax: C127, plateau level in activity at high compound concentration, read-out: % of Maximal Response; for EC50: chloride transport activity, MQAE; for % Maximal Response @ 1.25 μM: limiting concentration 1.25 μM. On the procedure:
C127 cells are a murine mammary epithelial cell line obtained from ATCC (#CRL 1616, American Type Culture Collection, Manassas, Va.). C127 cells were transfected with a bovine papilloma virus-based eukaryotic expression vector containing genes for ΔF508 CFTR and neomycin resistance whose expression was driven by a metallothionein promoter. Clonal cell populations resistant to G418 and positive for staining with anti-CFTR antibody were identified.
C127 cells expressing ΔF508 CFTR were grown in microtiter plates in DMEM (Dulbecco's Modified Eagle Medium, Hyclone, Logan, Utah) supplemented with fetal bovine serum, antibiotics, and glutamine in a 37° C., 5% CO2 atmosphere. Once confluent, the cells were loaded overnight with the disclosed compounds and a fluorescent dye sensitive to chloride ion concentration, N-(ethoxycarbonylmethyl)-6-methoxy quinolinium bromide (MQAE) (Verkman, Am. J. Physiol. 259 C375-C388 (1990)).
The following day, cells were washed with chloride-containing buffer to remove extracellular MQAE and to quench intracellular MQAE fluorescence. Chloride buffer was flicked out and replaced with nitrate buffer with added forskolin and IBMX (isobutylmethylxanthine) to stimulate CFTR activity. […] Buffers were adjusted to pH 7.4 and contained: 10 mM HEPES (N-2-Hydroxyethylpiperazine-N′-2-ethanesulfonic acid), 2.4 mM K2HPO4, 0.6 mM KH2PO4, 1.0 mM CaSO4, 1.0 mM MgSO4, 150 mM NaCl or NaNO3, and 25 mM glucose.
The increase in MQAE fluorescence as a function of time was followed using 360 nm excitation and 460 nm emission wavelengths. Fluorescence increased as chloride flowed out of cells through CFTR and the rate of increase in fluorescence over the first five minutes was taken as a measure of chloride transport activity.
Cells were treated with mixtures of up to 100 compounds per well for ca. 18 hours before the assay for chloride transport activity. […] Dose-response curves were generated and compounds were ranked based on their EC50 values and maximal responses (the plateau level in activity at high compound concentration, as a percentage of the low temperature response).

Where [1] appears, read: as a percentage of the low temperature response.
[2] abbreviates: percentage of low temperature response, C127 ΔF508 CFTR cells.

T1 sequence (P13569 with tags, fused parts or gaps DEL508-508): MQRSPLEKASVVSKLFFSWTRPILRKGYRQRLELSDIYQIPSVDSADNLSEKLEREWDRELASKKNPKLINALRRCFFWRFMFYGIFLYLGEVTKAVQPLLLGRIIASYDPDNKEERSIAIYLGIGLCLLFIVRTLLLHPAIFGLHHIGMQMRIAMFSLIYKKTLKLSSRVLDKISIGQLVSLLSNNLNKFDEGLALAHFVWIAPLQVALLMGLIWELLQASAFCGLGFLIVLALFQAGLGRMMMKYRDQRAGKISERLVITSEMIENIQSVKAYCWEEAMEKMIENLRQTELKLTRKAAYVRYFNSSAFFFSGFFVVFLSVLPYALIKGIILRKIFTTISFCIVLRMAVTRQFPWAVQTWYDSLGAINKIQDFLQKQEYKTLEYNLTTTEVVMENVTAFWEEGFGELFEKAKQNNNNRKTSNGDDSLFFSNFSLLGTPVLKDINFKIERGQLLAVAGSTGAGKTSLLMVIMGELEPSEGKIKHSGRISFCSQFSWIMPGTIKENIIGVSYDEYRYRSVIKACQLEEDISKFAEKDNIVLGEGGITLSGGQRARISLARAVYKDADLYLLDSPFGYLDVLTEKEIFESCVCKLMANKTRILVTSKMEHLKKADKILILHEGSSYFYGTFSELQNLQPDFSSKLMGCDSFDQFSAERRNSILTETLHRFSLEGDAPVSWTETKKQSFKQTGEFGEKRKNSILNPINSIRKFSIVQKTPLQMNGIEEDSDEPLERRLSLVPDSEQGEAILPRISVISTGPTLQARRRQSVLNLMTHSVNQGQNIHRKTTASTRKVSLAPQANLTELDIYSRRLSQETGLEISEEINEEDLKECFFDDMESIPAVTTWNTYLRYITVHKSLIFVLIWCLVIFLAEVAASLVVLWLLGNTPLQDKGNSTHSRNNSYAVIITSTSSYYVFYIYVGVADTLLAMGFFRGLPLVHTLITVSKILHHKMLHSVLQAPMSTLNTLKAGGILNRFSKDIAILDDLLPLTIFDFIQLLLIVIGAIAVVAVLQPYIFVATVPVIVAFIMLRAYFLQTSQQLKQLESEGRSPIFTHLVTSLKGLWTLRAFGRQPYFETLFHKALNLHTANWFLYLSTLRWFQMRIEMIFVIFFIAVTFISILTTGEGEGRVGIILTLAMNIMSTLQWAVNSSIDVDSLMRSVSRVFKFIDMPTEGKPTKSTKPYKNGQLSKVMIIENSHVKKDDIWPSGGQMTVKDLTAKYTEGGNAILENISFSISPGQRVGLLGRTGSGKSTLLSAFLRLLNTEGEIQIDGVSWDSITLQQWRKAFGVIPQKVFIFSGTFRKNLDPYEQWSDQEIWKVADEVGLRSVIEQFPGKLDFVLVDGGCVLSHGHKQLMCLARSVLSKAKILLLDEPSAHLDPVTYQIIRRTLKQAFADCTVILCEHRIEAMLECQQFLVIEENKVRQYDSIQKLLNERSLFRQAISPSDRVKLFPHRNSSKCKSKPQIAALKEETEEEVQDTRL

For the compound `O=C(Nc1ccc(Cl)cc1)C1Cc2ccccc2CN1C(=O)c1cccc(Oc2ccccc2)c1` (racemic) [Compound 1], under setting [1], the Emax was determined as 79%.

What is called EC50 is the concentration at which the effect is half-maximal. Read a high EC50 as weaker potency. For the compound `Cc1ccc(Oc2cccc(C(=O)N3Cc4ccccc4CC3C(=O)Nc3ccc(Cl)cc3)c2)cc1` (racemic) [Compound 7], the Emax under setting [1] came to 77%. Besides, the EC50 (C127 ΔF508 CFTR cells) was 250 nM.

`CC(C)(C)c1ccc(Oc2cccc(C(=O)N3Cc4ccccc4CC3C(=O)Nc3ccc(Cl)cc3)c2)cc1` (racemic) [Compound 8]: under setting [1], the Emax is 95%. It took 280 nM to reach a half-maximal effect (C127 ΔF508 CFTR cells) (EC50).

For `COc1ccccc1Oc1cccc(C(=O)N2Cc3ccccc3CC2C(=O)Nc2ccc(Cl)cc2)c1` (racemic) [Compound 11, (±)-2-[3-(2-Methoxyphenoxy)benzoyl]-1,2,3,4-tetrahydroisoquinoline-3-carboxylic acid(4-chlorophenyl)amide], the Emax under setting [1] is 52%. The compound further yielded a concentration giving a half-maximal response (EC50) (C127 ΔF508 CFTR cells) of 260 nM.

Take `COc1ccc(C(=O)N2Cc3ccccc3CC2C(=O)Nc2ccc(Cl)cc2)cc1Oc1ccccc1` (racemic) [Compound 17]: under setting [1], the Emax stood at 65%. The concentration for a half-maximal effect (EC50) (C127 ΔF508 CFTR cells) is 67 nM.

Turning to `O=C(Nc1ccc(Cl)cc1)C1Cc2ccc(O)cc2CN1C(=O)c1cccc(Oc2ccccc2)c1` (racemic) [Compound 20], the Emax under setting [1] amounted to 28%. Further, the 50% effective concentration (EC50) (C127 ΔF508 CFTR cells) was found to be 1240 nM.

For `CCCCCc1ccc(NC(=O)C2Cc3c(C)cccc3CN2C(=O)c2cccc(Oc3ccccc3)c2)cc1` (racemic) [Compound 21], the Emax under setting [1] is 28%. Under “C127 ΔF508 CFTR cells”, the response was half-maximal at 170 nM (EC50).

For the compound `O=C(Nc1ccc(Cl)cc1)C1Cc2ccccc2CN1C(=O)c1ccc2ccccc2c1` (racemic) [Compound 22, (±)-2-(Naphthalene-2-carbonyl)-1,2,3,4-tetrahydroisoquinoline-3-carboxylic acid(4-chlorophenyl)amide], the “% Maximal Response @ 1.25 μM” value under setting [2] is 36%.

`Cc1ccc(NC(=O)C2Cc3ccccc3CN2C(=O)c2cccc(Oc3ccccc3)c2)cc1` (racemic) [Compound 67]: where the note is “C127, limiting concentration 1.25 μM, percentage of low temperature response, C127 ΔF508 CFTR cells, read-out: % Maximal Response @ 1.25 μM”, the Percent of low-temperature response at 1.25 µM is 85%. Besides, under setting [1], the Emax is 70%. For the setting “C127 ΔF508 CFTR cells”, the EC50 was found to be 270 nM.

Consider `O=C(NCCc1ccc(Br)cc1)C1Cc2ccccc2CN1C(=O)c1cccc(Oc2ccccc2)c1` (racemic) [Compound 73, (±)-2-(3-Phenoxybenzoyl)-1,2,3,4-tetrahydroisoquinoline-3-carboxylic acid[2-(4-bromophenyl)-ethyl]amide], for which the “% Maximal Response @ 1.25 μM” value under setting [2] was determined as 34%.

With `CCCc1ccc(NC(=O)C2Cc3ccccc3CN2C(=O)c2cccc(Oc3ccccc3)c2)cc1` (racemic) [Compound 75], the Emax under setting [1] turned out to be 82%. For the same compound, a half-maximal effect (C127 ΔF508 CFTR cells) (EC50) was put at 270 nM.

Consider `O=C(Nc1ccc(C2CCCCC2)cc1)C1Cc2ccccc2CN1C(=O)c1cccc(Oc2ccccc2)c1` (racemic) [Compound 76], for which the Emax under setting [1] was found to be 36%. Moreover, the half-maximal effective concentration (EC50) (C127 ΔF508 CFTR cells) is 400 nM.

As for `CCC(C)c1ccc(NC(=O)C2Cc3ccccc3CN2C(=O)c2cccc(Oc3ccccc3)c2)cc1` (racemic) [Compound 77], the Emax under setting [1] was found to be 30%. For the setting “C127 ΔF508 CFTR cells”, this compound had an EC50 of 350 nM.

For the compound `CC(C)c1ccc(NC(=O)C2Cc3ccccc3CN2C(=O)c2cccc(Oc3ccccc3)c2)cc1` (racemic) [Compound 78], under setting [1], the Emax turned out to be 40%. For the same compound, a half-maximal effect (C127 ΔF508 CFTR cells) (EC50) was put at 250 nM.

As to `CCc1ccc(NC(=O)C2Cc3ccccc3CN2C(=O)c2cccc(Oc3ccccc3)c2)cc1` (racemic) [Compound 79], the Emax under setting [1] was determined as 73%. This compound also displayed a 50% effective concentration (EC50) (C127 ΔF508 CFTR cells) of 230 nM.

Consider `CCOc1cccc(NC(=O)C2Cc3ccccc3CN2C(=O)c2cccc(Oc3ccccc3)c2)c1` (racemic) [Compound 83], for which the Emax under setting [1] was 79%. The midpoint of the response (C127 ΔF508 CFTR cells), the EC50, lay at 280 nM.

Consider `CC(=O)N(C)c1ccc(NC(=O)C2Cc3ccccc3CN2C(=O)c2cccc(Oc3ccccc3)c2)cc1` (racemic) [Compound 85], for which the Emax under setting [1] worked out at 74%. In addition, for the setting “C127 ΔF508 CFTR cells”, the EC50 came out at 96 nM.

For `CCCCCc1ccc(NC(=O)C2Cc3ccccc3CN2C(=O)c2cccc(Oc3ccccc3)c2)cc1` (racemic) [Compound 87], the Emax under setting [1] turned out to be 74%.

On to `CCCCCCN(C(C)=O)c1ccc(NC(=O)C2Cc3ccccc3CN2C(=O)c2cccc(Oc3ccccc3)c2)cc1` (racemic) [Compound 90, (±)-2-(3-Phenoxybenzoyl)-1,2,3,4-tetrahydroisoquinoline-3-carboxylic acid[4-(acetylhexylamino)phenyl]amide], for which the Emax under setting [1] turned out to be 66%. For the same compound, the EC50 (C127 ΔF508 CFTR cells) came to 59 nM.

Turning to `O=C(Nc1ccc(I)cc1)C1Cc2ccccc2CN1C(=O)c1cccc(Oc2ccccc2)c1` (racemic) [Compound 93], under setting [1], the Emax worked out at 60%.

For `CCCC(=O)N(C)c1ccc(NC(=O)C2Cc3ccccc3CN2C(=O)c2cccc(Oc3ccccc3)c2)cc1` (racemic) [Compound 95, (±)-2-(3-Phenoxybenzoyl)-1,2,3,4-tetrahydroisoquinoline-3-carboxylic acid[4-(butyrylmethylamino)-phenyl]amide], under setting [1], the Emax came to 80%. The compound further yielded an EC50 (C127 ΔF508 CFTR cells) of 150 nM.

Turning to `O=C(Nc1cccnc1)C1Cc2ccccc2CN1C(=O)c1cccc(Oc2ccccc2)c1` (racemic) [Compound 98], under setting [1], the Emax amounted to 55%.

Turning to `COc1ccc(NC(=O)C2Cc3ccccc3CN2C(=O)c2cccc(Oc3ccccc3)c2)cn1` (racemic) [Compound 99], the Emax under setting [1] was determined as 70%. For the same compound, the response (C127 ΔF508 CFTR cells) was half-maximal at 270 nM (EC50).

As for `O=C(Nc1nccs1)C1Cc2ccccc2CN1C(=O)c1cccc(Oc2ccccc2)c1` (racemic) [Compound 100], the Emax under setting [1] came to 59%. The compound further showed an EC50 (C127 ΔF508 CFTR cells) of 430 nM.

For `CCCCN(C(C)=O)c1ccc(NC(=O)C2Cc3ccccc3CN2C(=O)c2cccc(Oc3ccccc3)c2)cc1` (racemic) [Compound 102], the Emax under setting [1] was 70%.

As for `COc1ccc(C(=O)N2Cc3ccccc3CC2C(=O)Nc2ccc(Cl)nc2)cc1Oc1ccccc1` (racemic) [Compound 108], the Emax under setting [1] was determined as 60%. For the setting “C127 ΔF508 CFTR cells”, this compound gave a concentration giving a half-maximal response (EC50) of 100 nM.

For the compound `CCCCCc1ccc(NC(=O)C2Cc3ccccc3CN2C(=O)c2cccc(OCc3ccccc3)c2)cc1` (racemic) [Compound 113], under setting [1], the Emax turned out to be 91%. Moreover, the response (C127 ΔF508 CFTR cells) was half-maximal at 69 nM (EC50).

`CC1c2ccccc2CN(C(=O)c2cccc(Oc3ccccc3)c2)C1C(=O)Nc1ccc(Cl)cc1` (single isomer, unassigned) [Compound 18]: the Emax under setting [1] came to 59%. The compound further displayed an EC50 (C127 ΔF508 CFTR cells) of 87 nM.

Where the note is “C127 ΔF508 CFTR cells”, `CC1c2ccccc2CN(C(=O)c2cccc(Oc3ccccc3)c2)C1C(=O)Nc1ccc(Cl)cc1` (single isomer, unassigned) [Compound 19] came in with a half-maximal effective concentration (EC50) of 150 nM. For the setting “plateau level in activity at high compound concentration, as a percentage of the low temperature response”, the “% of Maximal Response” value is given as 69%.

Turning to `O=C(Nc1ccc(Cl)cc1)C1Cc2ccccc2CN1C(=O)c1cccc(OCc2ccccc2)c1` (single isomer, unassigned; (+)) [Compound 14, (+)-2-(3-Benzyloxybenzoyl)-1,2,3,4-tetrahydroisoquinoline-3-carboxylic acid(4-chlorophenyl)amide], the Emax under setting [1] came out at 85%. The compound further registered an EC50 (C127 ΔF508 CFTR cells) of 220 nM.

For the compound `CC(=O)N(C)c1ccc(NC(=O)[C@@H]2Cc3ccccc3CN2C(=O)c2cccc(Oc3ccccc3)c2)cc1` [Compound 86], the Emax under setting [1] worked out at 54%. This compound showed a concentration for a half-maximal effect (EC50) (C127 ΔF508 CFTR cells) of 66 nM.

Regarding `CCCCCc1ccc(NC(=O)[C@@H]2Cc3ccccc3CN2C(=O)c2cccc(Oc3ccccc3)c2)cc1` [Compound 88], under setting [1], the Emax was determined as 76%.

Regarding `CCCCCCN(C(C)=O)c1ccc(NC(=O)[C@@H]2Cc3ccccc3CN2C(=O)c2cccc(Oc3ccccc3)c2)cc1` [Compound 91], the Emax under setting [1] stood at 70%. Moreover, for the setting “C127 ΔF508 CFTR cells”, the EC50 came out at 29 nM.

Turning to `CCCCN(C(C)=O)c1ccc(NC(=O)[C@@H]2Cc3ccccc3CN2C(=O)c2cccc(Oc3ccccc3)c2)cc1` [Compound 103], the Emax under setting [1] stood at 76%.

As for `CCCCCc1ccc(NC(=O)[C@@H]2Cc3ccccc3CN2C(=O)c2cccc(Oc3ccccc3)c2)cn1` [Compound 107, (S)-2-(3-Phenoxybenzoyl)-1,2,3,4-tetrahydroisoquinoline-3-carboxylic acid(6-pentylpyridin-3-yl)amide], the Emax under setting [1] came out at 54%.

As to `O=C(Nc1ccc(F)cc1)[C@@H]1Cc2ccccc2CN1C(=O)c1cc(OC2CCCCC2)ccn1` [Compound 109], under setting [1], the Emax came to 87%. In addition, it took 96 nM to reach a half-maximal effect (C127 ΔF508 CFTR cells) (EC50).

As for `COc1ccc(NC(=O)[C@@H]2Cc3ccccc3CN2C(=O)c2cc(OC3CCCCC3)ccn2)cn1` [Compound 110], under setting [1], the Emax was 64%. The 50% effective concentration (EC50) (C127 ΔF508 CFTR cells) was determined as 400 nM.

As for `CCOc1cccc(NC(=O)[C@@H]2Cc3ccccc3CN2C(=O)c2cc(OC3CCCCC3)ccn2)c1` [Compound 111], the Emax under setting [1] was 73%. Besides, a half-maximal effect (C127 ΔF508 CFTR cells) (EC50) was put at 150 nM.
